Reference: publication PMC12463120, “Phenylalanine‐Based DNA‐Encoded Chemical Libraries for the Discovery of Potent and Selective Small Organic Ligands Against Markers of Cancer and Immune Cells” (Advanced Science, 2025)

Experiments:
[1] = biological target: T1, NKG2D-Fc (Homo sapiens, UniProt P26718); assay: Flow cytometry on streptavidin sepharose beads coated with NKG2D-Fc; format: binding; settings: 300 nM
T1 construct: the extracellular domain of NKG2D was fused with an IgG Fc fragment; made in house; host or cells: CHO cells
T1 sequence (P26718 73-216 limits assumed): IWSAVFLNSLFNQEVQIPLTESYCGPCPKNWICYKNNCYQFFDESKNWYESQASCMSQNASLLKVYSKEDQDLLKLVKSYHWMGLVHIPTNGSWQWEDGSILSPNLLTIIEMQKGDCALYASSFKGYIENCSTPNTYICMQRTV
Procedure: HT1080.hPSMA and PC3.hACP3 cell lines were generated by lentiviral transduction on wild type cells (HT1080.wt and PC3.wt), according to published procedures9. For long-term storage, cell lines were maintained in liquid nitrogen. Prior to in vitro and in vivo experiments, cells were cultured in DMEM (PC3.wt, PC3.hACP3, HT1080.wt, and HT1080.hPSMA) or RPMI medium (SK-RC-52) (medium provided by Invitrogen) supplemented with FCS (10%, Invitrogen) and antibiotic-antimycotic (1%, AA, Invitrogen) at 37 °C and 5% CO2. For passaging, cells were detached using Trypsin-EDTA 0.05% (Invitrogen) when reaching 90% confluency and re-seeded at a dilution of 1:3 (PC3.hACP3 and PC3.wt) […]
2.17 Flow cytometry experiments on cells
Cancer cells were detached with an Accutase® cell detachment solution, resuspended in a standard culture medium, and transferred to falcon tubes. Cells were counted and centrifuged at 400 rcf for 3 min. […] Data were acquired halting the measurement at 10´ 000 events on a Cytoflex S flow cytometer (Beckman Coulter), and analyzed using the FlowJo software v10 (BD Biosciences). […]
plate (20 µL/well). […] Data were acquired halting the measurement at 10’000 events on a Cytoflex S flow cytometer (Beckman Coulter) and analyzed using the FlowJo software v10 (BD Biosciences). […]

[2] = biological target: T1, NKG2D-Fc; assay: Size-exclusion chromatography co-elution with NKG2D-Fc; format: binding

SMILES: CC(C)Oc1ccc(-c2cccc(C[C@H](NC(=O)c3ccccc3-c3ccc(C(F)(F)F)cc3)C(=O)N[C@@H](CCCCNC(=S)Nc3ccc4c(c3)C(=O)OC43c4ccc(O)cc4Oc4cc(O)ccc43)C(=O)O)c2)c(F)c1 [compound 30]
- binding on NKG2D-Fc-coated streptavidin sepharose beads by flow cytometry [1]: significant shift in binding
- co-elution with NKG2D-Fc in size-exclusion chromatography [2]: kinetically stable complex
